Reference: the NIST ThermoML archive (doi:10.1016/j.jct.2017.12.023)

Assay: xn = mol fraction of the nth substance listed
Settings: 100 kPa, Liquid; for viscosity: Concentric cylinders viscometry; for mass density: Vibrating tube method

CCOS(=O)(=O)[O-].CCn1cc[n+](C)c1 [1-ethyl-3-methylimidazolium ethyl sulfate] + CN1CCCC1=O
Settings | mass density, 313.15 K [kg/m3] | mass density, 318.15 K [kg/m3] | mass density, 323.15 K [kg/m3] | mass density, 328.15 K [kg/m3] | mass density, 333.15 K [kg/m3] | viscosity, 313.15 K [mPa·s] | viscosity, 318.15 K [mPa·s] | viscosity, 323.15 K [mPa·s] | viscosity, 328.15 K [mPa·s] | viscosity, 333.15 K [mPa·s]
x1 = 0.1009 | 1058.09 | 1053.91 | 1049.74 | 1045.59 | 1041.42 | 2.432 | 2.231 | 2.061 | 1.912 | 1.782
x1 = 0.2012 | 1091.55 | 1087.53 | 1083.52 | 1079.52 | 1075.53 | 4.013 | 3.668 | 3.344 | 3.064 | 2.804
x1 = 0.3021 | 1119.03 | 1115.14 | 1111.25 | 1107.38 | 1103.53 | 6.231 | 5.615 | 5.053 | 4.575 | 4.154
x1 = 0.4012 | 1141.61 | 1137.84 | 1134.08 | 1130.34 | 1126.61 | 9.114 | 8.113 | 7.216 | 6.458 | 5.808
x1 = 0.4973 | 1160.1 | 1156.42 | 1152.75 | 1149.1 | 1145.47 | 12.5 | 11 | 9.678 | 8.585 | 7.681
x1 = 0.596 | 1176.69 | 1173.09 | 1169.51 | 1165.95 | 1162.4 | 16.76 | 14.57 | 12.7 | 11.16 | 9.893
x1 = 0.6998 | 1191.67 | 1188.15 | 1184.64 | 1181.15 | 1177.67 | 22.04 | 18.93 | 16.34 | 14.23 | 12.51
x1 = 0.7961 | 1204.17 | 1200.71 | 1197.26 | 1193.83 | 1190.42 | 27.72 | 23.58 | 20.2 | 17.46 | 15.27
x1 = 0.8821 | 1214.27 | 1210.86 | 1207.47 | 1204.1 | 1200.75 | 34.42 | 29 | 24.63 | 21.14 | 18.36
x1 = 1 | 1226.13 | 1222.79 | 1219.46 | 1216.16 | 1212.86 | 47.26 | 39.25 | 32.94 | 27.96 | 24.09
